Source: ChEMBL document CHEMBL3400010, “Cytotoxic and antioxidant constituents from the leaves of Psidium guajava” (Bioorg Med Chem Lett, 2015)
Converted amounts (≈) assume the structure as drawn.

Legend:
[1] = Antioxidant activity assessed as FRAP values at 100 ug/ml incubated at 37 degC for 5 mins by FeSO4.7H2O calibration curve based method; type: physicochemical
[2] = Antioxidant activity assessed as ABTS radical scavenging activity after 15 mins; type: physicochemical
[3] = Antioxidant activity assessed as FRAP values at 50 ug/ml incubated at 37 degC for 5 mins by FeSO4.7H2O calibration curve based method; type: physicochemical
[4] = Antioxidant activity assessed as FRAP values at 25 ug/ml incubated at 37 degC for 5 mins by FeSO4.7H2O calibration curve based method; type: physicochemical
[5] = Antioxidant activity assessed as DPPH radical scavenging activity after 30 mins by microplate reader based assay; type: physicochemical
[6] = Antioxidant activity assessed as FRAP values at 12.5 ug/ml incubated at 37 degC for 5 mins by FeSO4.7H2O calibration curve based method; type: physicochemical
HeLa = assay: Cytotoxicity against human HeLa cells by MTT assay; type: functional, cell-based
[7] = Cytotoxicity against human SGC7901 cells by MTT assay; type: functional, cell-based; conditions: SGC-7901
A549 = assay: Cytotoxicity against human A549 cells by MTT assay; type: functional, cell-based

Activity [1] [µmol/L] | IC50 [2] [µg/mL] | Activity [3] [µmol/L] | Activity [4] [µmol/L] | IC50 [5] [µg/mL] | Activity [6] [µmol/L] | Structure (SMILES) | IC50 (HeLa) [µg/mL] | IC50 [7] [µg/mL] | IC50 (A549) [µg/mL]
324.58 | 6.9 (≈ 15.9 µM) | 291.63 | 269 | 16.13 (≈ 37.1 µM) | 123.88 | O=c1c(O[C@@H]2O[C@@H](CO)[C@H](O)[C@H]2O)c(-c2ccc(O)c(O)c2)oc2cc(O)cc(O)c12 [AVICULARIN] | > 10 | > 10 | > 10
329.68 | 10.57 (≈ 22.8 µM) | 287.94 | 155.89 | 27.03 (≈ 58.2 µM) | 68.06 | O=c1c(O[C@@H]2O[C@H](CO)[C@H](O)[C@H](O)[C@H]2O)c(-c2ccc(O)c(O)c2)oc2cc(O)cc(O)c12 [HYPEROSIDE] | > 10 | > 10 | > 10
386.38 | 5.47 (≈ 10.9 µM) | 250.53 | 143.76 | 13.07 (≈ 26 µM) | 91.28 | O=C(OC[C@H]1O[C@@H](Oc2cc(-c3ccccc3)oc(=O)c2)[C@H](O)[C@@H](O)[C@@H]1O)c1cc(O)c(O)c(O)c1 | 3.25 (≈ 6.46 µM) | 4.28 (≈ 8.51 µM) | 7.29 (≈ 14.5 µM)
341.94 | 8.3 (≈ 14.5 µM) | 185.03 | 90.63 | 28.33 (≈ 49.5 µM) | 48.3 | Cc1c(O)c(C(=O)c2ccccc2)c(O)c(C)c1O[C@@H]1O[C@H](COC(=O)c2cc(O)c(O)c(O)c2)[C@@H](O)[C@H](O)[C@H]1O | > 10 | > 10 | > 10
174.6 | 13.63 (≈ 25 µM) | 131.03 | 53.29 | 37.93 (≈ 69.7 µM) | 18.46 | O=C(OC[C@H]1O[C@@H](Oc2cc(O)c(C(=O)c3ccccc3)c(O)c2)[C@H](O)[C@@H](O)[C@@H]1O)c1cc(O)c(O)c(O)c1 | > 10 | > 10 | > 10
346.45 | 6.7 (≈ 15.4 µM) | 220.51 | 175.59 | 13.43 (≈ 30.9 µM) | 57.21 | O=c1c(O[C@@H]2OC[C@H](O)[C@H](O)[C@H]2O)c(-c2ccc(O)c(O)c2)oc2cc(O)cc(O)c12 [GUAJAVERIN] | > 10 | > 10 | > 10

Further lines, the compound ahead of its results:

Structure (SMILES) | Activity [1] [µmol/L] | IC50 [2] [µg/mL] | Activity [3] [µmol/L] | Activity [4] [µmol/L] | IC50 [5] [µg/mL] | Activity [6] [µmol/L] | IC50 (HeLa) [µg/mL] | IC50 [7] [µg/mL] | IC50 (A549) [µg/mL]
O=C1O[C@H]([C@@H](O)CO)C(O)=C1O [ASCORBIC ACID] | 442.43 | 8.53 (≈ 48.4 µM) | 396.76 | 292.1 | 16.3 (≈ 92.5 µM) | 149.97 |  |  | 
O=c1c(O)c(-c2ccc(O)c(O)c2)oc2cc(O)cc(O)c12 [QUERCETIN] | 401.27 | 4.4 (≈ 14.6 µM) | 379.4 | 359.18 | 11 (≈ 36.4 µM) | 333.26 | 8.26 (≈ 27.3 µM) | 7.88 (≈ 26.1 µM) | > 10
Cc1c(O)c(C)c(O[C@@H]2O[C@H](CO)[C@@H](O)[C@H](O)[C@H]2O)c(C(=O)c2ccccc2)c1O | 46.37 | 32.97 (≈ 78.4 µM) | 23.73 | 14 | > 100 | 11.54 | > 10 | > 10 | > 10
Cc1c(O)cc(O[C@@H]2O[C@H](CO)[C@@H](O)[C@H](O)[C@H]2O)c(C(=O)c2ccccc2)c1O |  | 29.27 (≈ 72 µM) |  |  | > 100 |  | > 10 | > 10 | > 10
C/C(=C/O[C@@H]1O[C@H](COC(=O)c2cc(O)c(O)c(O)c2)[C@@H](O)[C@H](O)[C@H]1O)C(=O)O | 413.94 | 5.93 (≈ 14.2 µM) | 263.31 | 152.02 | 13.1 (≈ 31.5 µM) | 70.64 | 3.51 (≈ 8.44 µM) | 3.73 (≈ 8.96 µM) | 7.01 (≈ 16.8 µM)
COc1cccc2c1C(=O)c1c(O)c3c(c(O)c1C2=O)C[C@@](O)(C(=O)CO)C[C@@H]3O[C@H]1C[C@H](N)[C@H](O)[C@H](C)O1 [DOXORUBICIN] |  |  |  |  |  |  | 2.68 (≈ 4.94 µM) | 1.36 (≈ 2.5 µM) | 3.12 (≈ 5.74 µM)
